Experimental data taken from ChEMBL document CHEMBL4419168, “Substituted n-([1,1''-biphenyl]-3-yl)-[1,1''-biphenyl]-3-carboxamide analogs as inhibitors for beta-catenin/b-cell lymphoma 9 interactions” (2018).
pIC50, pKi: −log10 of the molar value.

How the values were obtained:
Homo sapiens = species on record: Homo sapiens; assay: Selectivity index, ratio of Ki for inhibition of C-terminal 6x-histidine tagged beta-catenin (138 to 686 residues) (unknown origin) expressed in Escherichia coli BL21 DE3/N-terminally biotinylated human E-cadherin (824 to 877 residues) protein-protein interactions by Alpha-screen assay to Ki for …
SW480 [1] = assay: Cytotoxicity in human SW480 cells assessed as reduction in cell viability incubated for 72 hrs by MTS assay; type: functional, cell-based; conditions: for pIC50: SW480, 72 h
HCT-116 = assay: Cytotoxicity in human HCT116 cells assessed as reduction in cell viability incubated for 72 hrs by MTS assay; type: functional, cell-based; conditions: for pIC50: HCT-116, 72 h
HT-29 = assay: Cytotoxicity in human HT-29 cells assessed as reduction in cell viability incubated for 72 hrs by MTS assay; type: functional, cell-based; conditions: for pIC50: HT-29, 72 h
MDA-MB-231 = assay: Cytotoxicity in human MDA-MB-231 cells assessed as reduction in cell viability incubated for 72 hrs by MTS assay; type: functional, cell-based; conditions: for pIC50: MDA-MB-231, 72 h
[2] = biological target: T1, beta-catenin-B-cell lymphoma 9 protein complex (Homo sapiens, UniProt P35222); assay: Inhibition of C-terminal 6x-histidine tagged beta-catenin (138 to 686 residues) (unknown origin) expressed in Escherichia coli BL21 DE3 /human BCL9 (350 to 375 residues) protein-protein interactions incubated for 1 hr by Alpha-screen assay
T1 sequence (P35222 whole entry): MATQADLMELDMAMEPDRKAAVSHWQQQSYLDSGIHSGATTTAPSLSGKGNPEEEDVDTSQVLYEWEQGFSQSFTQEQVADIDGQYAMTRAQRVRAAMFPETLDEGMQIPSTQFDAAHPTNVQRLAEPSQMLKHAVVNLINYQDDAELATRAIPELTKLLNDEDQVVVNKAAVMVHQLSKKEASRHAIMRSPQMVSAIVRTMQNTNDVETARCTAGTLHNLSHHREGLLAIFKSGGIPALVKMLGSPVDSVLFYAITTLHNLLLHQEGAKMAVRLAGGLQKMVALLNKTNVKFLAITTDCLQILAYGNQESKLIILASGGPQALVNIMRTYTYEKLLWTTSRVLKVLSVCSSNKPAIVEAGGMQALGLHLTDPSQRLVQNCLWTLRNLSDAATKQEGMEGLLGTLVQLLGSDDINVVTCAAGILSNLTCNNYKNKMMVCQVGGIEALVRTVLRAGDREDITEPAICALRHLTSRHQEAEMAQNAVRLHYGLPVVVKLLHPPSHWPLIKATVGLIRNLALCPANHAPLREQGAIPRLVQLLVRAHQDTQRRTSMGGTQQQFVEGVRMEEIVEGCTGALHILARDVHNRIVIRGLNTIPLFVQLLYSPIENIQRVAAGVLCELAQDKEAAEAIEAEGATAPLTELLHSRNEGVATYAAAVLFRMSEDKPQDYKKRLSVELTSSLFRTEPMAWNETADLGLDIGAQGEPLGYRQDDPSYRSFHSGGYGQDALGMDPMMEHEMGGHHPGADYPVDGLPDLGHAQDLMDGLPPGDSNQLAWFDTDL
T1 sequence (O00512 whole entry): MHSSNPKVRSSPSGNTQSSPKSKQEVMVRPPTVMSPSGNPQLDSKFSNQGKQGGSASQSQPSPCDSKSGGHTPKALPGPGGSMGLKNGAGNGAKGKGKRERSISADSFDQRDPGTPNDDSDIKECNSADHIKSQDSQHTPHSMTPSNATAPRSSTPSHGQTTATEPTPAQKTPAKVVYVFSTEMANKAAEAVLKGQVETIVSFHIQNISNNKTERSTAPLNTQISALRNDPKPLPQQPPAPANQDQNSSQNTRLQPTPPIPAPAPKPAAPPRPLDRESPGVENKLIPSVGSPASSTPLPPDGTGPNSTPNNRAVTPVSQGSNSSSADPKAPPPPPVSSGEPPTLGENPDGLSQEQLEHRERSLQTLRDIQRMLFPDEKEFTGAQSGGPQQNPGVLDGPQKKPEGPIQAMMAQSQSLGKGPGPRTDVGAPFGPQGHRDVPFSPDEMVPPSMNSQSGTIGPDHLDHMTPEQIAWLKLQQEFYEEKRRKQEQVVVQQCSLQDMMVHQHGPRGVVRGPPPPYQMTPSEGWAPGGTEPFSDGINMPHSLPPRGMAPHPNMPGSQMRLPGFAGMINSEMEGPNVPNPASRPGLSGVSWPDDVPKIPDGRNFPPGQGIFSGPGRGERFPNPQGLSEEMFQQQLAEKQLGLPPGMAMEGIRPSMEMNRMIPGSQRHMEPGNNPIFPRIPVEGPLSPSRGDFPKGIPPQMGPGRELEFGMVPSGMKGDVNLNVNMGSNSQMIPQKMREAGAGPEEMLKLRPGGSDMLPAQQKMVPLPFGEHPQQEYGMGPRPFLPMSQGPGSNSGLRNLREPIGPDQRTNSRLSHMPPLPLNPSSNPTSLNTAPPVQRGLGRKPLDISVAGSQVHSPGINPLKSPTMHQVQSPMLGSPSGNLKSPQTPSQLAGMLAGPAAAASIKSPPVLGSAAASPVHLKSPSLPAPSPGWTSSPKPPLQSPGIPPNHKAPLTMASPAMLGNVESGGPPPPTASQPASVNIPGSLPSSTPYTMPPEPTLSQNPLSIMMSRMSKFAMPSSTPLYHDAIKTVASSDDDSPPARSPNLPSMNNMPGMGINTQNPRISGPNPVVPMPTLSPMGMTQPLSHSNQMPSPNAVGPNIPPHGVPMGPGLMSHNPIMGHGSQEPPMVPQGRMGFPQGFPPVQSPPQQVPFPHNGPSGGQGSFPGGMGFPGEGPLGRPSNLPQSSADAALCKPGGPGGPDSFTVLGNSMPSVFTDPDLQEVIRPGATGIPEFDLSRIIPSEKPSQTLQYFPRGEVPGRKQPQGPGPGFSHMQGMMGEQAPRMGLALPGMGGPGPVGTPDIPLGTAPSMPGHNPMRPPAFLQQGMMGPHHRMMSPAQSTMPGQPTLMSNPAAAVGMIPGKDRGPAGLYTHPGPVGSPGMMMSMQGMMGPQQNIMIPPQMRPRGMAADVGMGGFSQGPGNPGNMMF

A549 = assay: Cytotoxicity in human A549 cells assessed as reduction in cell viability incubated for 72 hrs by MTS assay; type: functional, cell-based; conditions: A549, 72 h
MCF-10A = assay: Cytotoxicity in human MCF10A cells assessed as reduction in cell viability incubated for 72 hrs by MTS assay; type: cell-based
[3] = biological target: beta-catenin-B-cell lymphoma 9 protein complex (Homo sapiens, UniProt P35222, D145A); assay: Inhibition of inhibited beta-catenin D145A mutant (unknown origin) expressed in Escherichia coli BL21 DE3 /human BCL9 (350 to 375 residues) protein-protein interactions by Alpha-screen assay
[4] = biological target: beta-catenin-B-cell lymphoma 9 protein complex (Homo sapiens, UniProt P35222, D145A/E155A); assay: Inhibition of inhibited beta-catenin D145A/E155A mutant (unknown origin) expressed in Escherichia coli BL21 DE3 /human BCL9 (350 to 375 residues) protein-protein interactions by Alpha-screen assay
SW480 [5] = assay: Inhibition of anchorage-independent growth in human SW480 cells incubated fro 18 days by crystal violet staining based assay; type: functional, cell-based

| SMILES | Ratio Ki (Homo sapiens) | pKi [2] | pIC50 (SW480 [1]) | pIC50 (HCT-116) | pIC50 (MDA-MB-231) | also measured |
| --- | --- | --- | --- | --- | --- | --- |
| CC(C)c1cc2c(c(O)c1O)[C@@]1(C(=O)O)CCCC(C)(C)[C@@H]1CC2 [CARNOSIC ACID] | 73 | – | 4.98 | 5.06 | – | pIC50 (HT-29): 4.69 |
| O=C(NCCCC(=O)N1CCNCC1)c1ccc(-c2cc(C(=O)Nc3ccc(O[C@H]4CCNC4)c(-c4ccc(F)cc4)c3)ccc2O[C@H]2CCNC2)cc1 | 345 | – | – | – | – | – |
| Cc1cc(C(=O)Nc2ccc(O[C@H]3CCNC3)c(-c3ccc(F)cc3)c2)ccc1O[C@H]1CCNC1 | – | – | – | – | 5.04 | – |
| NCCOc1ccc(NC(=O)c2ccc(OCCN)c(-c3ccc(F)c(F)c3)c2)cc1-c1ccc(F)cc1 | 38 | – | – | – | – | – |
| O=C(Nc1ccc(O[C@H]2CCNC2)c(-c2ccc(F)cc2)c1)c1ccc(O[C@H]2CCNC2)c(-c2ccc3ccccc3c2)c1 | – | – | – | – | 3.66 | – |
| O=C(Nc1ccc(O[C@H]2CCNC2)c(-c2ccc(F)cc2)c1)c1ccc(O[C@H]2CCNC2)c(-c2ccc(F)c(F)c2)c1 | – | – | 5.46 | 5.51 | 5.61 to 5.64 | pKi [3]: 4.87; pKi [4]: 4.01; inhibition (SW480 [1]): Dose-dependent effect; inhibition (HCT-116): Dose-dependent effect; inhibition (HT-29): Dose-dependent effect; pIC50 (HT-29): 5.53; inhibition (MDA-MB-231): Dose-dependent effect; pIC50 (A549): 5.06; pIC50 (MCF-10A): 5.04; inhibition (SW480 [5]): Dose-dependent effect |
| NCCOc1ccc(NC(=O)c2ccc(OCCN)c(-c3ccc(F)cc3)c2)cc1-c1ccc(F)cc1 | – | 4.94 | – | – | – | – |

Further lines, with some results ahead:

| Ratio Ki (Homo sapiens) | pKi [2] | SMILES | pIC50 (SW480 [1]) | pIC50 (HCT-116) | pIC50 (MDA-MB-231) | also measured |
| --- | --- | --- | --- | --- | --- | --- |
| 16 | – | O=C(Nc1ccc(OC2CNC2)c(-c2ccc(F)cc2)c1)c1ccc(OC2CNC2)c(-c2ccc(F)c(F)c2)c1 | – | – | – | – |
| 35 | 5.18 | O=C(Nc1ccc(O[C@H]2CCNC2)c(-c2ccc(F)cc2)c1)c1ccc(O[C@H]2CCNC2)c(-c2ccc(F)cc2)c1 | 5.01 | 5.08 | 5.08 to 5.15 | pIC50 (A549): 4.73; pIC50 (MCF-10A): 4.70 |
| 30 | 5.06 | O=C(Nc1ccc(O[C@H]2CCNC2)c(-c2ccc(F)c(F)c2)c1)c1ccc(O[C@H]2CCNC2)c(-c2ccc(F)c(F)c2)c1 | – | – | – | – |
